Article PMC10620091 (Nature, 2023)
One block for each molecule: values may come before it.

Legend:
SpSLC9C1 = biological target: T1, SpSLC9C1 (Strongylocentrotus purpuratus, UniProt A3RL54); assay: ITC (isolated CTD), nanoDSF ([…] °C shift), cryo-EM structure; assay type: binding
T1 construct: gene SLC9C1; ITC and nanoDSF: isolated CTD (S946–E1193: helix E', CNBD and β-CTD); cryo-EM: full-length SpSLC9C1 in lipid nanodiscs
T1 sequence (A3RL54 946-1193): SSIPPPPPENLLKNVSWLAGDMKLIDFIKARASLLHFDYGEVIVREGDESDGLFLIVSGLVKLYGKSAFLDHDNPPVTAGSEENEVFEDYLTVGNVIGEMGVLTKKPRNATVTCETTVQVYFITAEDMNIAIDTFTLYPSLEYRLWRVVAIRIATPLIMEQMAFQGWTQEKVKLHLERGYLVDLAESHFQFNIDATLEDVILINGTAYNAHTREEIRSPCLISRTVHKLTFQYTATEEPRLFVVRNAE

[1] = biological target: the molecule itself; assay: cryo-EM structure; ligand-free SpSLC9C1 in MSP 2N2 / soy polar lipid nanodiscs, pH 7.6, 150 mM Na+ (20 mM HEPES pH 7.6, 150 mM NaCl); C2 symmetry imposed on the final dimer map

Kd (SpSLC9C1): 9.3 µM
Molecule: Nc1nc2c(ncn2[C@@H]2O[C@@H]3COP(=O)(O)O[C@H]3[C@H]2O)c(=O)[nH]1 [cGMP]

B1: SpSLC9C1 (sperm-specific Na+/H+ exchanger SLC9C1 from the sea urchin Strongylocentrotus purpuratus) (natural protein, UniProt A3RL54 30-1325, looked up)
chain: SSGGSGHTPTTQATHADDHDLTTHNGTEEHDDGHDDGHDDLHAHAPKVIVFISGSCLFGAISRSLFKKLPIPYTVVLLILGAILGVVASNVPLVEEHTRDVAHMDPHVLLQIFLPVLIFESAFAMDVHTFMRSFSQVCILALFGLVVASVLTAVLAMNLFNYNWNFSEAMMFGAIMSATDPVAVVALLKDLGASKQLGTIIEGESLLNDGCAIVIFNVFMKMVFFPQLTSTVGQNVLYFLQVAVAGPLWGYAVAKVTVFFLSHIFNDALVEITITLAATYLTYYIGDIWLEVSGVLAVVVLGLIVNAEKTSISPEVEVFLHRFWEMLAYLANTLIFMMVGVVVTQKALVAVDKMDWFYLIILYLAITIIRGMVISLFSPILSRIGYGLTWRNAVIMTWGGLRGAVGLALALVVENLAGNDVIGSKFLFHTAGIVVLTLVINATTIQTLLRILGMSDISIPKRLAMAGAVRRIHEGQNRTLNMLKSDRFLADADWDIATAACEISDPYSALSDDENAPADELTLGERKSVCPGCKAMVPNEPSPREFADMMEEARLRMLKAEKISYWKQFEHGMLAREALRLLVQHAEVAADEKDQFILVDDLKKSWQIKGIYPWLKRKLEDLISEKKIAAIPMPKYKLGKLMYKICHHMAFEVTINIAIVLNIVPIIMEFVVQDKMASVSTMAAPGSTVSSEPSSLQKIEDALRISNYVFFVIYAIEAIVKILGLGRHYIVSHWNKFDAFILVVALVDIIIAETLLKGSITINLSSIKVVKLFRLLRGLRMLRLTKALIPKLILVVNGKINNQLSLGYDVGKGYIIGEEEVGKIIDRMVDNKKILRELKHISETGRLQVVKELGLLQREHPGIAVSVKTRQAIRTILNHSRETIHELQGAGLLDEMEAHKLELTVEIKMKRLMNAPSSIPPPPPENLLKNVSWLAGDMKLIDFIKARASLLHFDYGEVIVREGDESDGLFLIVSGLVKLYGKSAFLDHDNPPVTAGSEENEVFEDYLTVGNVIGEMGVLTKKPRNATVTCETTVQVYFITAEDMNIAIDTFTLYPSLEYRLWRVVAIRIATPLIMEQMAFQGWTQEKVKLHLERGYLVDLAESHFQFNIDATLEDVILINGTAYNAHTREEIRSPCLISRTVHKLTFQYTATEEPRLFVVRNAEYNGPILDGRLDVDSKRSLISITEISSNMCLKHAAELRQKNSKVMLSRKSSGAAAKEEEDCIPNTSDVEQAAGVSPSVPTKTTPKPKSFLPSLGLSMSKERVNGEAVEESPVKTKQGEETPETEEGAAPRVNV
notes: SpSLC9C1, Strongylocentrotus purpuratus, UniProt A3RL54, gene codon-optimized for mammalian cells; full-length protein; the first 70 N-terminal residues are not resolved in the maps; C-terminal HRV-3C cleavage site followed by Venus, myc and SBP tags; the tags were cleaved off with HRV-3C, so residues of the cleavage site may remain at the C-terminus; Homodimer by cryo-EM; also called full-length …
stoichiometry N [1]: 2
